The source of these data is patent publication US10323032B2, “P2X7 Modulators” (Janssen Pharmaceutica NV, priority 2013, dated 2019).

The target in this test is P2X7 receptor (Homo sapiens (Human), UniProt Q99572). Briefly: P2X7 antagonism in human PBMCs: IL-1β release (ELISA) after LPS + Bz-ATP. Conditions: LPS 30 ng/ml + 0.5 mM Bz-ATP; for remaining activity at 10 µM: read-out: PBMC 10 μM (% control). The format is cell-based. As to the method:
Human blood was collected using a blood donor program. […] Cells were incubated for an additional 1.5 hours. […] Data are analyzed and graphed on Graphpad Prism 5. […] The IC50 for each compound is then uploaded into 3DX.
Background: In an ELISA, binding on a coated surface is turned into a signal by an enzyme label.

[1] abbreviates: P2X7, Table 3 (additional runs), 10 μM compound.

Where two headings read alike, the source gives them in different places.

Chain of P2X7 receptor (Q99572 whole entry): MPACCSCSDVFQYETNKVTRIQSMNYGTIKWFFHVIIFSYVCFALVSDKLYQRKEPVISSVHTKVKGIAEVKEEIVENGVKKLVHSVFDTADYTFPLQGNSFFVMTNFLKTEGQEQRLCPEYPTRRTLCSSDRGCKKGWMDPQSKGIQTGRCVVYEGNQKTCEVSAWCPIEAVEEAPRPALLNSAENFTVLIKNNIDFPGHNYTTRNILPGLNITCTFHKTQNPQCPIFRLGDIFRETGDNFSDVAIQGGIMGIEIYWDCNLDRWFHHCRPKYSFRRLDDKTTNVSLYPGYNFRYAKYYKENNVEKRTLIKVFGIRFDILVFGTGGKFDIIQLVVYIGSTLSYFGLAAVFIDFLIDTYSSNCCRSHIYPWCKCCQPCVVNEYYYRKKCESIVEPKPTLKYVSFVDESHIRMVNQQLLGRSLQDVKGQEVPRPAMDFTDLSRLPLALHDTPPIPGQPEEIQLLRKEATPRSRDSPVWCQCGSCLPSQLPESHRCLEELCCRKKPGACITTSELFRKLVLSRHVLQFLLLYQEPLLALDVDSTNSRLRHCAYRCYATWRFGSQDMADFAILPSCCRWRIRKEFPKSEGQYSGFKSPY

Turning to `Cc1nc2c(c(-c3ccn[nH]3)n1)C[C@@H](C)N(C(=O)c1cccc(F)c1Cl)C2` (single isomer, unassigned) [Example 144, (R*)-(2-chloro-3-fluorophenyl)(2,6-dimethyl-4-(1H-pyrazol-5-yl)-5,6-dihydropyrido[3,4-d]pyrimidin-7(8H)-yl)methanone], under setting [1], the remaining activity at 10 µM was -18.9%. For `Cc1nc2c(c(-c3ccn[nH]3)n1)C[C@H](C)N(C(=O)c1ccc(Cl)cc1F)C2` (single isomer, unassigned) [Example 89, (S*)-(4-chloro-2-fluorophenyl)(2,6-dimethyl-4-(1H-pyrazol-5-yl)-5,6-dihydropyrido[3,4-d]pyrimidin-7(8H)-yl)methanone], the remaining activity at 10 µM (P2X7, Table 2, 10 μM compound) was -16.4%.

Turning to `Cc1nc2c(c(-c3ccn[nH]3)n1)CC(C)N(C(=O)c1cccc(OC(F)(F)F)c1)C2` (stereo not shown) [Example 140, (2,6-dimethyl-4-(1H-pyrazol-5-yl)-5,6-dihydropyrido[3,4-d]pyrimidin-7(8H)-yl)(3-(trifluoromethoxy)phenyl)methanone], under “Table 3 (additional runs), 10 μM compound”, the “PBMC 10 μM (% control)” value is given as 52.5 % control.

As to `Cc1nc2c(c(-c3ccn[nH]3)n1)C[C@@H](C)N(C(=O)c1cccc(OC(F)(F)F)c1)C2` (single isomer, unassigned) [Example 141, (R*)-(2,6-dimethyl-4-(1H-pyrazol-5-yl)-5,6-dihydropyrido[3,4-d]pyrimidin-7(8H)-yl)(3-(trifluoromethoxy)phenyl)methanone], the remaining activity at 10 µM under setting [1] was -0.6%.
